In ChEMBL document CHEMBL1129010, “The preparation and evaluation of (+/-)-trans-1-Diazo-8-methoxy-4a-methyl-1,2,3,4,4a,9,10,10a-octahydro-phenanthren-2-one as an inhibitor of human type-1 steroid 5-reductase” (Bioorg Med Chem Lett, 1996):
pKi: −log10 of the molar value.

Legend:
[1] = biological target: T1, 3-oxo-5-alpha-steroid 4-dehydrogenase 2 (Homo sapiens, UniProt P31213); assay: Apparent inhibitory activity against human Steroid 5-alpha-reductase type 2 expressed in CHO cells; type: cell-based; details: read-out: Ki app
T1 sequence (P31213 whole entry): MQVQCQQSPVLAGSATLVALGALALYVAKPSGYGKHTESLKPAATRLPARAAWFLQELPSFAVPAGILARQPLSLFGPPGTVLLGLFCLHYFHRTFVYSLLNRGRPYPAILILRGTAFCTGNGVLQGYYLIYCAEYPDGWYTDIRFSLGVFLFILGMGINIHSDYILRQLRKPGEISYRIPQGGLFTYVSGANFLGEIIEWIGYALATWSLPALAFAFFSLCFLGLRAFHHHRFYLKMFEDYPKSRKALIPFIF

[2] = biological target: T2, 3-oxo-5-alpha-steroid 4-dehydrogenase 1 (Homo sapiens, UniProt P18405); assay: Apparent inhibitory activity against human Steroid 5-alpha-reductase type I expressed in CHO cells; type: cell-based; details: read-out: Ki app
T2 sequence (P18405 whole entry): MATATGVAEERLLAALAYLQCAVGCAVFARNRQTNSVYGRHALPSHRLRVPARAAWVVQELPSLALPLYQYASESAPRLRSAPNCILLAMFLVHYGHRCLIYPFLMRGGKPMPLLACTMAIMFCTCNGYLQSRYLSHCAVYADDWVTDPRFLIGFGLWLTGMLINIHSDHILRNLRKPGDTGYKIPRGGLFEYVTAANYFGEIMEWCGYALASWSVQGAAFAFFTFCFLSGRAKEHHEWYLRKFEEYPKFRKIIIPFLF

[3] = biological target: T2, 3-oxo-5-alpha-steroid 4-dehydrogenase 1; assay: Apparent inhibitory activity against human Steroid 5-alpha-reductase type I expressed in CHO cells; Active; type: cell-based
[4] = biological target: T3, 3-oxo-5-alpha-steroid 4-dehydrogenase 1 (Rattus norvegicus, UniProt P24008); assay: Apparent inhibitory activity against rat prostatic Steroid 5-alpha-reductase type I
T3 sequence (P24008 whole entry): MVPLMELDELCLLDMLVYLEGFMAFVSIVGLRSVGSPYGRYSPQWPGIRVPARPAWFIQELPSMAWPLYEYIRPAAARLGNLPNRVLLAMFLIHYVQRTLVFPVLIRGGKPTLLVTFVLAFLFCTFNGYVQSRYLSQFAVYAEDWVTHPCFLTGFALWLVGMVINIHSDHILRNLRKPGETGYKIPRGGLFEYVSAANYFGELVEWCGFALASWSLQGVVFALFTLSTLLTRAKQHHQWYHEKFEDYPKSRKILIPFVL

[5] = biological target: T2, 3-oxo-5-alpha-steroid 4-dehydrogenase 1; assay: Selective apparent inhibitory activity against human Steroid 5-alpha-reductase type I expressed in CHO cells; Active; type: cell-based

`COc1cccc2c1CC[C@H]1[C-]([N+]#N)C(=O)CC[C@]21C` gave a pKi [1] of 5.70 and a pKi [2] of 6.92.
For `CN1C(=O)CC[C@]2(C)c3ccc(Cl)cc3CC[C@@H]12`, the Ki [3] was “Active”.
`CC(CO)[C@H]1CC[C@H]2[C@@H]3CC[C@H]4C(=[N+]=[N-])C(=O)CC[C@]4(C)[C@H]3CC[C@]12C` (stereo partly specified) gave a pKi [4] of 7.46.
In the case of `C[C@]12CCC(C(=O)O)=CC1=CCc1cc(Cl)ccc12` (racemic), the Ki [5] was “Active”.
In the case of `CN1C(=O)CC[C@@H]2c3ccc(Cl)cc3CC[C@H]21` [BEXLOSTERIDE], the Ki [3] was “Active”.
